Test results: PubChem BioAssay (NCI)
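Following 48 hours of exposure in 96-well plates, responses at five concentrations were used to interpolate endpoints linearly. At the TGI there is no net growth.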

Columns and labels:
Assay in all cases: DTP human tumour cell line panel, 48 h
MCF7 breast = tested on: MCF7 breast
HOP-62 NSCLC = tested on: HOP-62 NSCLC
MOLT-4 leukemia = tested on: MOLT-4 leukemia
HOP-92 NSCLC = tested on: HOP-92 NSCLC
HL-60(TB) leukemia = tested on: HL-60(TB) leukemia
SN12C renal = tested on: SN12C renal
KM12 colon = tested on: KM12 colon
HCT-15 colon = tested on: HCT-15 colon
HCC-2998 colon = tested on: HCC-2998 colon
HS 578T breast = tested on: HS 578T breast
NCI-H23 lung = tested on: NCI-H23 lung
SF-268 CNS = tested on: SF-268 CNS
HCT-116 colon = tested on: HCT-116 colon
SF-539 CNS = tested on: SF-539 CNS
786-0 renal = tested on: 786-0 renal
SNB-19 CNS = tested on: SNB-19 CNS
HT29 colon = tested on: HT29 colon
RPMI-8226 leukemia = tested on: RPMI-8226 leukemia
PC-3 prostate = tested on: PC-3 prostate
SR leukemia = tested on: SR leukemia
OVCAR-5 ovarian = tested on: OVCAR-5 ovarian
SK-MEL-28 melanoma = tested on: SK-MEL-28 melanoma
U251 CNS = tested on: U251 CNS
SNB-75 CNS = tested on: SNB-75 CNS
SW-620 colon = tested on: SW-620 colon
K-562 leukemia = tested on: K-562 leukemia
OVCAR-8 ovarian = tested on: OVCAR-8 ovarian
UACC-257 melanoma = tested on: UACC-257 melanoma
MDA-N = tested on: MDA-N
TK-10 renal = tested on: TK-10 renal
BT-549 breast = tested on: BT-549 breast
DU-145 prostate = tested on: DU-145 prostate
MALME-3M melanoma = tested on: MALME-3M melanoma
SF-295 CNS = tested on: SF-295 CNS
SK-MEL-5 melanoma = tested on: SK-MEL-5 melanoma
NCI/ADR-RES ovarian = tested on: NCI/ADR-RES ovarian
LOX IMVI melanoma = tested on: LOX IMVI melanoma
CAKI-1 renal = tested on: CAKI-1 renal
ACHN renal = tested on: ACHN renal
OVCAR-4 ovarian = tested on: OVCAR-4 ovarian
M14 melanoma = tested on: M14 melanoma
OVCAR-3 ovarian = tested on: OVCAR-3 ovarian
COLO 205 colon = tested on: COLO 205 colon
NCI-H522 lung = tested on: NCI-H522 lung
A549 NSCLC = tested on: A549 NSCLC
SK-OV-3 ovarian = tested on: SK-OV-3 ovarian
MDA-MB-231 breast = tested on: MDA-MB-231 breast
MDA-MB-435 = tested on: MDA-MB-435
UO-31 renal = tested on: UO-31 renal
IGROV1 ovarian = tested on: IGROV1 ovarian
SK-MEL-2 melanoma = tested on: SK-MEL-2 melanoma
RXF 393 renal = tested on: RXF 393 renal
NCI-H460 lung = tested on: NCI-H460 lung
NCI-H226 lung = tested on: NCI-H226 lung
EKVX NSCLC = tested on: EKVX NSCLC
CCRF-CEM leukemia = tested on: CCRF-CEM leukemia
A498 renal = tested on: A498 renal
UACC-62 melanoma = tested on: UACC-62 melanoma

OCCN1c2ccccc2Sc2ccccc21
TGI (MCF7 breast): > 10 µM
TGI (HOP-62 NSCLC): > 10 µM
TGI (MOLT-4 leukemia): > 10 µM
TGI (HOP-92 NSCLC): > 10 µM
TGI (HL-60(TB) leukemia): > 10 µM
TGI (SN12C renal): > 10 µM
TGI (KM12 colon): > 10 µM
TGI (HCT-15 colon): > 10 µM
TGI (HCC-2998 colon): > 10 µM
TGI (HS 578T breast): > 10 µM
TGI (NCI-H23 lung): > 10 µM
TGI (SF-268 CNS): > 10 µM
TGI (HCT-116 colon): > 10 µM
TGI (SF-539 CNS): > 10 µM
TGI (786-0 renal): > 10 µM
TGI (SNB-19 CNS): > 10 µM
TGI (HT29 colon): > 10 µM
TGI (RPMI-8226 leukemia): > 10 µM
TGI (PC-3 prostate): > 10 µM
TGI (SR leukemia): > 10 µM
TGI (OVCAR-5 ovarian): > 10 µM
TGI (SK-MEL-28 melanoma): > 10 µM
TGI (U251 CNS): > 10 µM
TGI (SNB-75 CNS): > 10 µM
TGI (SW-620 colon): > 10 µM
TGI (K-562 leukemia): > 10 µM
TGI (OVCAR-8 ovarian): > 10 µM
TGI (UACC-257 melanoma): > 10 µM
TGI (MDA-N): > 10 µM
TGI (TK-10 renal): > 10 µM
TGI (BT-549 breast): > 10 µM
TGI (DU-145 prostate): > 10 µM
TGI (MALME-3M melanoma): > 10 µM
TGI (SF-295 CNS): > 10 µM
TGI (SK-MEL-5 melanoma): > 10 µM
TGI (NCI/ADR-RES ovarian): > 10 µM
TGI (LOX IMVI melanoma): > 10 µM
TGI (CAKI-1 renal): > 10 µM
TGI (ACHN renal): > 10 µM
TGI (OVCAR-4 ovarian): > 10 µM
TGI (M14 melanoma): > 10 µM
TGI (OVCAR-3 ovarian): > 10 µM
TGI (COLO 205 colon): > 10 µM
TGI (NCI-H522 lung): > 10 µM
TGI (A549 NSCLC): > 10 µM
TGI (SK-OV-3 ovarian): > 10 µM
TGI (MDA-MB-231 breast): > 10 µM
TGI (MDA-MB-435): > 10 µM

O=C(O)CNC(=O)C(CSC(=O)OCC1c2ccccc2-c2ccccc21)NC(=O)CCC(NC(=O)OCC1c2ccccc2-c2ccccc21)C(=O)O (stereo not given)
TGI (MCF7 breast): > 100 µM
TGI (HOP-62 NSCLC): 28.9 µM
TGI (MOLT-4 leukemia): 45.4 µM
TGI (HOP-92 NSCLC): 36.3 µM
TGI (HL-60(TB) leukemia): > 100 µM
TGI (SN12C renal): 30.7 µM
TGI (HCT-15 colon): 64.8 µM
TGI (HCC-2998 colon): > 100 µM
TGI (HS 578T breast): > 100 µM
TGI (NCI-H23 lung): > 100 µM
TGI (SF-268 CNS): 33.1 µM
TGI (HCT-116 colon): 32.6 µM
TGI (SF-539 CNS): 30.6 µM
TGI (UO-31 renal): 33 µM
TGI (786-0 renal): 9.13 µM
TGI (SNB-19 CNS): > 100 µM
TGI (IGROV1 ovarian): 26.8 µM
TGI (SK-MEL-2 melanoma): > 100 µM
TGI (RPMI-8226 leukemia): 46.4 µM
TGI (PC-3 prostate): 28.9 µM
TGI (SR leukemia): 15.4 µM
TGI (OVCAR-5 ovarian): > 100 µM
TGI (SK-MEL-28 melanoma): > 100 µM
TGI (SW-620 colon): 35.1 µM
TGI (K-562 leukemia): 39.2 µM
TGI (OVCAR-8 ovarian): 32.4 µM
TGI (UACC-257 melanoma): > 100 µM
TGI (MDA-N): 82.3 µM
TGI (TK-10 renal): 56 µM
TGI (RXF 393 renal): 34.7 µM
TGI (BT-549 breast): > 100 µM
TGI (DU-145 prostate): 28.6 µM
TGI (MALME-3M melanoma): 59.4 µM
TGI (NCI-H460 lung): 34.2 µM
TGI (SF-295 CNS): 30.5 µM
TGI (SK-MEL-5 melanoma): > 100 µM
TGI (NCI/ADR-RES ovarian): 33.7 µM
TGI (LOX IMVI melanoma): 0.577 µM
TGI (NCI-H226 lung): > 100 µM
TGI (CAKI-1 renal): 15.7 µM
TGI (EKVX NSCLC): 32.2 µM
TGI (ACHN renal): 32.8 µM
TGI (OVCAR-4 ovarian): 29.5 µM
TGI (M14 melanoma): > 100 µM
TGI (OVCAR-3 ovarian): > 100 µM
TGI (COLO 205 colon): 31.1 µM
TGI (NCI-H522 lung): 3.52 µM
TGI (A549 NSCLC): 28 µM
TGI (SK-OV-3 ovarian): > 100 µM
TGI (CCRF-CEM leukemia): 41.2 µM
TGI (MDA-MB-231 breast): 31.9 µM
TGI (MDA-MB-435): 34.1 µM

CC(C)C(=O)OCC1CCCN2CCCCC12 (stereo not given)
TGI (MCF7 breast): > 100 µM
TGI (HOP-62 NSCLC): > 100 µM
TGI (MOLT-4 leukemia): > 100 µM
TGI (HOP-92 NSCLC): > 100 µM
TGI (HL-60(TB) leukemia): > 100 µM
TGI (SN12C renal): > 100 µM
TGI (KM12 colon): > 100 µM
TGI (HCT-15 colon): > 100 µM
TGI (HCC-2998 colon): > 100 µM
TGI (HS 578T breast): > 100 µM
TGI (NCI-H23 lung): > 100 µM
TGI (SF-268 CNS): > 100 µM
TGI (HCT-116 colon): > 100 µM
TGI (SF-539 CNS): > 100 µM
TGI (UO-31 renal): > 100 µM
TGI (786-0 renal): > 100 µM
TGI (SNB-19 CNS): > 100 µM
TGI (HT29 colon): 97.6 µM
TGI (SK-MEL-2 melanoma): > 100 µM
TGI (RPMI-8226 leukemia): > 100 µM
TGI (PC-3 prostate): > 100 µM
TGI (OVCAR-5 ovarian): > 100 µM
TGI (SK-MEL-28 melanoma): > 100 µM
TGI (U251 CNS): > 100 µM
TGI (SNB-75 CNS): > 100 µM
TGI (SW-620 colon): > 100 µM
TGI (K-562 leukemia): > 100 µM
TGI (OVCAR-8 ovarian): > 100 µM
TGI (UACC-257 melanoma): > 100 µM
TGI (A498 renal): > 100 µM
TGI (MDA-N): > 100 µM
TGI (TK-10 renal): > 100 µM
TGI (RXF 393 renal): > 100 µM
TGI (BT-549 breast): > 100 µM
TGI (DU-145 prostate): > 100 µM
TGI (MALME-3M melanoma): > 100 µM
TGI (NCI-H460 lung): > 100 µM
TGI (SF-295 CNS): > 100 µM
TGI (SK-MEL-5 melanoma): > 100 µM
TGI (NCI/ADR-RES ovarian): > 100 µM
TGI (LOX IMVI melanoma): > 100 µM
TGI (NCI-H226 lung): > 100 µM
TGI (CAKI-1 renal): > 100 µM
TGI (EKVX NSCLC): > 100 µM
TGI (ACHN renal): > 100 µM
TGI (OVCAR-4 ovarian): > 100 µM
TGI (M14 melanoma): > 100 µM
TGI (OVCAR-3 ovarian): > 100 µM
TGI (UACC-62 melanoma): > 100 µM
TGI (COLO 205 colon): > 100 µM
TGI (A549 NSCLC): > 100 µM
TGI (SK-OV-3 ovarian): > 100 µM
TGI (CCRF-CEM leukemia): > 100 µM
TGI (MDA-MB-231 breast): > 100 µM
TGI (MDA-MB-435): > 100 µM
